Measured values as given in ChEMBL document CHEMBL5050844 (2019).

Legend:
[1] = Induction of anti-CD3/CD28 antibodies-stimulated human T cell activation at 0.3 uM assessed fold increase in CD25 expression measured by ELISA assay; assay type: functional, T cell line
[2] = Induction of anti-CD3/CD28 antibodies-stimulated human T cell activation at 0.3 uM assessed fold increase in IL-2 secretion measured by ELISA assay; assay type: functional, T cell line
[3] = Induction of anti-CD3 antibodies-stimulated human T cell activation at 1 uM assessed fold increase in CD25 expression measured by ELISA assay; assay type: functional, T cell line; further: reference of the scale not given here
[4] = Induction of anti-CD3 antibodies-stimulated human T cell activation at 1 uM assessed fold increase in IL-2 secretion measured by ELISA assay; assay type: functional, T cell line; further: reference of the scale not given here
[5] = Induction of anti-CD3/CD28 antibodies-stimulated human T cell activation at 1 uM assessed fold increase in IL-2 secretion measured by ELISA assay; assay type: functional, T cell line
[6] = Induction of anti-CD3/CD28 antibodies-stimulated human T cell activation at 1 uM assessed fold increase in CD25 expression measured by ELISA assay; assay type: functional, T cell line
[7] = target: E3 ubiquitin-protein ligase CBL-B (Homo sapiens, UniProt Q13191); assay: Inhibition of N-terminal Avi-tagged human CBL-B (36 to 427 residues) incubated with 60 nM Src kinase for 1.5 hrs followed by incubation with fluorescently labeled UbcH5B-Ub for 1 hr and measured by TR-FRET assay; assay type: single protein
Sequence of E3 ubiquitin-protein ligase CBL-B (Q13191 whole entry, the tested form may be a part): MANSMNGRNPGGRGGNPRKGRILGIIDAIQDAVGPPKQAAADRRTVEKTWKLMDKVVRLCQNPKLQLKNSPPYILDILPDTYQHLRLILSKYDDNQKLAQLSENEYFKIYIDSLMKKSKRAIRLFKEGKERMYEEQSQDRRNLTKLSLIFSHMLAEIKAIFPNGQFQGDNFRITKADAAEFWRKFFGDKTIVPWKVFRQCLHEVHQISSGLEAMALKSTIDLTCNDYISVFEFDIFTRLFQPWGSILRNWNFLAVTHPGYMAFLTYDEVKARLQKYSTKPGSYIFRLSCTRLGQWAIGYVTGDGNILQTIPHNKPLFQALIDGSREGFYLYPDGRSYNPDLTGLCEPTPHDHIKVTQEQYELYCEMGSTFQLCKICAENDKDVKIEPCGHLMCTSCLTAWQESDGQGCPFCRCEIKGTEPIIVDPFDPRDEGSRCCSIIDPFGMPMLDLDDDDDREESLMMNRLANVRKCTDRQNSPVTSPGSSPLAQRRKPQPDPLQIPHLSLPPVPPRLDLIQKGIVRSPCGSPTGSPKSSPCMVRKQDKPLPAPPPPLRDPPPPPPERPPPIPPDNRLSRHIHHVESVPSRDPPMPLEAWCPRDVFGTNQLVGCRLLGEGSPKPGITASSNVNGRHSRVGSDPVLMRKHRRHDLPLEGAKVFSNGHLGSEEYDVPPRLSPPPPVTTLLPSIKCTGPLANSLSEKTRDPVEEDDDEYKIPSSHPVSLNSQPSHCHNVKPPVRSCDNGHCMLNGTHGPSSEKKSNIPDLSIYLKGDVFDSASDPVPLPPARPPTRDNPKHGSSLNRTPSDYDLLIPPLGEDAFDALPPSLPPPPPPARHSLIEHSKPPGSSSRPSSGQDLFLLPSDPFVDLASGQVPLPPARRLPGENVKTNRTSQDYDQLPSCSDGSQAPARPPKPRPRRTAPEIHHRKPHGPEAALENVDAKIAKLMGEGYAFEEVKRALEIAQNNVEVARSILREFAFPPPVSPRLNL

Structure (SMILES) | fold change (FC) [1] | fold change (FC) [2] | fold change (FC) [3] | fold change (FC) [4] | fold change (FC) [5] | fold change (FC) [6] | IC50 [7] | further results
C[C@H](Cc1nncn1C)c1cc(N2Cc3c(cccc3C(F)(F)F)C2=O)nc(C2(C)CC2)c1 | 1.01 | 1.01 | <=0.6 | 0.051 | 1.01 | 1.01 | – | –
Cn1cnnc1CC1(c2cccc(N3Cc4c(cc(CN5CCOC(CCF)C5)cc4C(F)(F)F)C3=O)c2)COC1 (stereo not given) | – | – | – | – | – | – | < 100 nM | –
Cn1cnnc1CC1(c2cccc(N3Cc4c(cc(CN5Cc6cccc(Cl)c6C5)cc4C(F)(F)F)C3=O)c2)COC1 | – | – | – | – | – | – | < 100 nM | –
Cn1cnnc1CC1(c2cccc(N3Cc4c(cc(CN5CCc6cnccc6C5)cc4C(F)(F)F)C3=O)c2)COC1 | – | – | – | – | – | – | < 100 nM | –
Cn1cnnc1CC1(c2cccc(N3Cc4c(cc(C(F)(F)C(=O)O)cc4C(F)(F)F)C3=O)c2)COC1 | 1.01 | 1.01 | 0.601 | <=0.05 | 1.01 | 1.01 | – | –
C[C@@H]1CN(Cc2cc3c(c(C(F)(F)F)c2)CN(c2cccc(-c4c(-c5nncn5C)cnn4C)c2)C3=O)C[C@H](C)O1 | – | – | – | – | – | – | < 100 nM | –
C[C@H](Cc1nncn1C)c1cc(-c2cncs2)nc(N2Cc3c(cccc3C(F)(F)F)C2=O)c1 | 1.01 | 1.01 | <=0.6 | 0.051 | 1.01 | 1.01 | – | –
Cn1cnnc1CC1(c2cccc(N3Cc4c(cc(CN5CCOC(CF)C5)cc4C(F)(F)F)C3=O)c2)COC1 (stereo not given) | – | – | – | – | – | – | < 100 nM | –
Cc1cn(C)c(SC(C)c2ccnc(NC(=O)c3ccc4ccccc4n3)c2)n1 (stereo not given) | – | – | – | – | – | – | > 10000 nM | –
Cn1cnnc1CC1(c2cccc(N3Cc4c(cc(CN5CCOC6(CC6)C5)cc4C(F)(F)F)C3=O)c2)COC1 | – | – | – | – | – | – | < 100 nM | –
Cn1cnnc1CC1(c2cccc(NC(=O)c3ccnc4ccnn34)c2)COC1 | 1.01 | 1.01 | 0.601 | <=0.05 | 2.51 | 1.01 | – | –
CN(c1cc2c(c(C(F)(F)F)c1)CN(c1cccc([C@@](C)(F)C(F)(F)c3nncn3C)c1)C2=O)[C@@H]1CNC[C@@H]1F | 1.01 | 1.01 | 0.601 | 0.101 | 2.51 | 1.01 | – | –
Cn1cnnc1CC1(c2cccc(N3Cc4c(cc(CN5CCOC(C(F)F)C5)cc4C(F)(F)F)C3=O)c2)COC1 (stereo not given) | – | – | – | – | – | – | < 100 nM | –
Cn1cnnc1CC1(c2cccc(N3Cc4c(cc(CN5CCOC6(CCOC6)C5)cc4C(F)(F)F)C3=O)c2)COC1 (stereo not given) | – | – | – | – | – | – | < 100 nM | –
Cn1cnnc1CC1(c2cccc(N3Cc4c(cc(CN5CC[C@@H](c6ccccc6)C5)cc4C(F)(F)F)C3=O)c2)COC1 | – | – | – | – | – | – | < 100 nM | –
Cn1cnnc1CC1(c2cccc(N3Cc4c(cc(CN5Cc6ccc(Cl)cc6C5)cc4C(F)(F)F)C3=O)c2)COC1 | – | – | – | – | – | – | < 100 nM | –
Cn1cnnc1CC1(c2cccc(N3Cc4c(cc(CN5CC[C@H](F)[C@@H](F)C5)cc4C(F)(F)F)C3=O)c2)COC1 | – | – | – | – | – | – | < 100 nM | –
Cn1cnnc1CC1(c2cccc(N3Cc4c(cc(CN5CCc6ncccc6C5)cc4C(F)(F)F)C3=O)c2)COC1 | – | – | – | – | – | – | < 100 nM | –
Cn1cnnc1CC1(c2cccc(N3Cc4c(cc(CN5Cc6cccc(C#N)c6C5)cc4C(F)(F)F)C3=O)c2)COC1 | – | – | – | – | – | – | < 100 nM | –
Cn1cnnc1CC1(c2cccc(N3Cc4c(cc(CN5CCc6cc(C#N)ccc6C5)cc4C(F)(F)F)C3=O)c2)COC1 | – | – | – | – | – | – | < 100 nM | –
Cc1cnn2c(C(=O)Nc3cccc(C4(Cc5nncn5C)COC4)c3)cc(C(F)(F)F)nc12 | 1.01 | <=1 | 0.601 | <=0.05 | 1.01 | 1.01 | – | –
CN(c1cc2c(c(C(F)(F)F)c1)CN(c1cccc([C@@](C)(F)C(F)(F)c3nncn3C)c1)C2=O)[C@H]1CNC[C@H]1F | 1.01 | 1.01 | 0.801 | 0.151 | 2.51 | 1.31 | – | –
CC(C)C1CN(Cc2cc3c(c(C(F)(F)F)c2)CN(c2cccc(C4(Cc5nncn5C)COC4)c2)C3=O)CCO1 (stereo not given) | – | – | – | – | – | – | < 100 nM | –

Structure (SMILES) | fold change (FC) [1] | fold change (FC) [2] | fold change (FC) [3] | fold change (FC) [4] | fold change (FC) [5] | fold change (FC) [6] | IC50 [7] | further results
Cn1cnnc1CC1(c2cccc(NC(=O)c3nc(C4CC4)cs3)c2)COC1 | 1.01 | <=1 | <=0.6 | <=0.05 | 1.01 | 1.01 | – | –
Cn1cnnc1CC1(c2cccc(N3Cc4c(cc(CN5CCOC(C6CCC6)C5)cc4C(F)(F)F)C3=O)c2)COC1 (stereo not given) | – | – | – | – | – | – | < 100 nM | –
COc1ccc2c(c1)CN(Cc1cc3c(c(C(F)(F)F)c1)CN(c1cccc(C4(Cc5nncn5C)COC4)c1)C3=O)CC2 | – | – | – | – | – | – | < 100 nM | –
Cc1cc(C(=O)Nc2cccc(C3(Cc4nncn4C)COC3)c2)n2nccc2n1 | 1.01 | 1.01 | 0.601 | <=0.05 | 1.01 | 1.01 | – | –
CC1=C(c2cc3c(c(C(F)(F)F)c2)CN(c2cccc(C4(Cc5nncn5C)COC4)c2)C3=O)CCO1 | – | – | – | – | – | – | < 100 nM | –
Cn1cnnc1CC1(c2cccc(N3Cc4c(cc(CN5CCc6ccncc6C5)cc4C(F)(F)F)C3=O)c2)COC1 | – | – | – | – | – | – | < 100 nM | –
C[C@H](Sc1nncn1C)c1cccc(NC(=O)c2cc(C(=O)N3CCC[C@H]3C)ccn2)c1 | – | – | – | – | – | – | > 10000 nM | –
Cn1cnnc1CC1(c2cccc(N3Cc4c(cc(CN5CC[C@@H]6NCCO[C@@H]6C5)cc4C(F)(F)F)C3=O)c2)COC1 (relative stereo) | – | – | – | – | – | – | < 100 nM | –
Cc1cc(C(=O)Nc2cccc(C3(Cc4[nH]ncc4C)COC3)c2)nc(C2CC2)n1 | – | – | – | – | – | – | < 100 nM | –
Cn1cnnc1CC1(c2cccc(NC(=O)c3csc(C4CC4)n3)c2)COC1 | 1.01 | 1.01 | 0.601 | 0.051 | 1.01 | 1.01 | – | –
Cn1cnnc1CC1(c2cccc(N3Cc4c(cc(CN5CCOC(CCO)C5)cc4C(F)(F)F)C3=O)c2)COC1 (stereo not given) | – | – | – | – | – | – | < 100 nM | –
C[C@H](Cc1nncn1C)c1cc(-c2cn[nH]c2)nc(N2Cc3c(cccc3C(F)(F)F)C2=O)c1 | <=1 | <=1 | <=0.6 | 0.051 | <=1 | <=1 | – | –
Cn1cnnc1-c1cnn(C)c1-c1cccc(N2Cc3c(cccc3C(F)(F)F)C2=O)c1 | 1.01 | 1.01 | 0.601 | 0.051 | 1.01 | 1.01 | – | –
Cn1cnnc1[C@H](F)C1(c2cccc(N3Cc4c(cc(CN5C6CCCC5CC6)cc4C(F)(F)F)C3=O)c2)COC1 (stereo in doubt; 675b) | – | – | – | – | – | – | – | fold change (FC) ([1]; 0.3 µM): 1.31; fold change (FC) ([6]; 1 µM): 1.31
Cn1cnnc1[C@@H](F)C1(c2cccc(N3Cc4c(cc(CN5C6CCCC5CC6)cc4C(F)(F)F)C3=O)c2)COC1 (stereo in doubt; 675a) | – | – | – | – | – | – | – | fold change (FC) ([1]; 0.3 µM): 1.01; fold change (FC) ([3]; 1 µM): >=1.001; fold change (FC) ([4]; 1 µM): 0.101; fold change (FC) ([6]; 1 µM): 1.31
Cc1cc(C(=O)Nc2cccc(-c3c(-c4nncn4C)cnn3C)c2)nc(C2CC2)n1 | 1.01 | 1.01 | 0.601 | 0.101 | 1.01 | 1.01 | – | –
Cn1cnnc1CC1(c2cccc(N3Cc4c(cc(C5=CN6CCC5CC6)cc4C(F)(F)F)C3=O)c2)COC1 | 1.01 | 1.01 | 0.601 | <=0.05 | 2.51 | 1.01 | – | –
C[C@H](Cc1nncn1C)c1cc(C2CCOCC2)nc(N2Cc3c(cccc3C(F)(F)F)C2=O)c1 | 1.01 | 1.01 | <=0.6 | <=0.05 | 1.01 | 1.01 | – | –
Cn1cnnc1CC1(c2cccc(NC(=O)c3nc(C(F)(F)F)cs3)c2)COC1 | 1.01 | 1.01 | 0.601 | <=0.05 | 2.51 | 1.01 | – | –
Cc1cc(C(=O)Nc2cccc([C@]3(Cc4nncn4C)CCOC3)c2)nc(C2CC2)n1 (single isomer, unassigned) | 1.01 | 1.01 | 0.601 | 0.051 | 2.51 | 1.01 | – | –
Cn1cnnc1OC1(c2cccc(N3Cc4c(cc(CN5CCC(F)CC5)cc4C(F)(F)F)C3=O)c2)COC1 | 1.01 | 1.01 | 0.601 | <=0.05 | 2.51 | 1.31 | – | –
Cn1cnnc1CC1(c2cccc(N3Cc4c(ccc(F)c4C4CC4)C3=O)c2)COC1 | 1.01 | 1.01 | 0.601 | 0.051 | 1.01 | 1.01 | – | –
Cc1cc(C(=O)Nc2cccc(C3(Cc4nncn4C)COC3)c2)n2nc(C(F)(F)F)cc2n1 | 1.01 | 1.01 | 0.601 | <=0.05 | 1.01 | 1.01 | – | –
